Consider four compounds from patent US20090181972A1, “Novel Inhibitors of Cysteine Proteases, the Pharmaceutical Compositions Thereof and their Therapeutic Applications” (priority 2005, published 2009).

In one assay the target is T1, Uch-L3 (Homo sapiens, UniProt P15374).
T1 sequence (P15374 1-230): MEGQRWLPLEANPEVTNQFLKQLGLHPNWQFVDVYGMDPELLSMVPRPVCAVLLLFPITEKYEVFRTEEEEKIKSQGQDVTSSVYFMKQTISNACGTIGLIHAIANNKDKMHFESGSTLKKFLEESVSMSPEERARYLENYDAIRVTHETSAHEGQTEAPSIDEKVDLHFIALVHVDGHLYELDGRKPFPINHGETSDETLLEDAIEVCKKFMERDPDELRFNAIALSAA
In words: UCH-L3 activity assay. It counts as biochemical. Conditions: 400 nM Ub-AMC, 13 pM enzyme; pre-incubated 30 minutes at 25° C., 60 minutes at 37° C.; sigmoidal fit. As for the experimental part: Uch-L3 was diluted in USP buffer (50 mM Tris HCl; 0.5 mM EDTA; 5 mM DTT; 0.01% Triton X-100; Bovine Serum Albumin 0.05 mg.ml^−1 pH 7.6). Compounds stocks (100 mM) were stored at −20° C. in DMSO. Compounds were tested at the following final concentrations: 100 μM; 33.3 μM; 11.1 μM; 3.7 μM; 1.23 μM; 412 nM; 137 nM; 45.7 nM; 15.2 nM; 5 nM.
(§1) Reactions were performed as duplicates in Black LJL 96 well plates (HE microplates; Molecular Devices; 20 μl final reaction volume). The substrate concentration for Uch-L3 was 400 nM Ub-AMC (Boston Biochem). The concentration of the enzyme (Uch-L3) in specificity assays was 13 pM. The concentrations were determined in order to perform specificity assays under initial velocities at fixed substrate concentration. Compounds were pre-incubated with enzymes for 30 minutes at 25° C. Reactions were initiated by addition of substrate to the plates containing the enzymes (+/− compounds) diluted in assay buffer. Reactions were incubated for 60 minutes at 37° C. Reactions were stopped by adding acetic acid (100 mM final). Readings were performed on a Pherastar Fluorescent Reader (BMG). δ Emission 380 nm; δ Excitation=460 nm. Data (mean values +/− standard deviation) were analyzed as % of control (no compound) and plotted as percentage versus the Log of the compound concentration using GraphPad (Prism). Data were fitted to a sigmoidal model (variable slope).

The target of another assay is T2, SENP1 (Homo sapiens, UniProt Q9P0U3).
T2 construct: made in house; host or cells: E. coli BL21
T2 sequence (Q9P0U3 1-644): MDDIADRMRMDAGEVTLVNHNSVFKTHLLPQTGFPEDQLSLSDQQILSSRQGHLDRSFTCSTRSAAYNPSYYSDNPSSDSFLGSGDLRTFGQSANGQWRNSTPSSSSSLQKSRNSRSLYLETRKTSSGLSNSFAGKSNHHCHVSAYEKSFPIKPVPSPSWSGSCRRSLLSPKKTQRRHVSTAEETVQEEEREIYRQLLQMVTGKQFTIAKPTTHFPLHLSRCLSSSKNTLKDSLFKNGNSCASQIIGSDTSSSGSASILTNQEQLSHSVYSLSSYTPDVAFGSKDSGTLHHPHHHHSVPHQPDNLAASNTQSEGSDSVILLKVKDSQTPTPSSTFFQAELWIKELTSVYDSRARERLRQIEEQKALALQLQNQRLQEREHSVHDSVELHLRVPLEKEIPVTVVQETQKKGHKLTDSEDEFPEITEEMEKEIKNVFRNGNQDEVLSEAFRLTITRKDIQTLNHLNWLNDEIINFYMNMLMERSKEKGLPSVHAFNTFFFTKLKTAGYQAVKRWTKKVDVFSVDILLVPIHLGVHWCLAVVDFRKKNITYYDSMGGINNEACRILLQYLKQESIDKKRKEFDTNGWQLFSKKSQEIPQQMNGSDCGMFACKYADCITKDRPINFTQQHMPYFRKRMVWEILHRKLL
Kind of assay: SENP1 activity assay. It counts as biochemical. Conditions: MBP-SENP1 1.8 nM, 200 nM SUMO-AMC; pre-incubated 30 minutes at 25° C., 60 minutes at 37° C.; sigmoidal fit. As for the experimental part:
The cDNA encoding SENP1 was obtained by PCR amplification from placenta mRNA. SENP1 cDNA was subcloned by PCR into a bacterial expression vector (pMAL-C2X; New England BioLabs, Inc). The sequence was ascertained by sequencing of the entire open reading frame. pMAL-C2-SENP1 was transformed into BL21 cells and grown in LB-ampicillin medium supplemented with glucose (2 g.l^−1). Fusion protein expression was induced by IPTG (0.5 mM). Bacterial cell lysates were harvested and lyzed in lysis buffer (Tris HCl 20 mM pH 7.4; 1 mM EDTA; 200 mM NaCl; 0.5% Triton X-100; 10 % glycerol; Protease Inhibitor Cocktail) followed by sonication. Proteins were affinity purified on amylose affinity resin (New England BioLabs, Inc). Bound materials were extensively washed in wash buffer (20 mM Tris HCl pH 7.4; 200 mM NaCl; 1 mM EDTA; 0.5% Triton X-100; 10% glycerol) and eluted from the resin in 10 mM maltose-containing wash buffer. Proteins were dialyzed in dialysis buffer (Tris HCl pH 7.6 20 mM; NaCl 200 mM; DTT 1 mM; EDTA 1 mM; 10% Glycerol). Proteins purifications were analyzed on 4-12% NuPAGE (Invitrogen).
MBP-SENP1 was diluted in SENP1 buffer (50 mM Tris HCl; 0.5 mM EDTA; 5 mM DTT; 0.01 % Triton X-100; Bovine Serum Albumin 0.05 mg.ml^−1 pH 7.6). Compounds stocks (100 mM) were stored at −20° C. in DMSO. Compounds were tested at the following final concentrations: 100 μM; 33.3 μM; 11.1 μM; 3.7 μM; 1.23 μM; 412 nM; 137 nM; 45.7 nM; 15.2 nM; 5 nM.
as §1, with “SENP1” for “Uch-L3”, “200” for “400”, “SUMO-AMC (Chem. Biol., 2003, 10, p. 837-846)” for “Ub-AMC”, “(SENP1)” for “(Uch-L3)”, “1.8 nM.” for “13 pM.”, “λ” for “δ”

Broadly, the IC50 is the concentration needed to halve the response being measured. Take “6-(7)-Chloro-1-methyl-2,3,4,10,10a-pentaaza-cyclopenta[b]fluoren-9-one [Example 3/A]”: the IC50 at Uch-L3 was 323 nM; against SENP1, over 100000 nM. In turn, `CC(C)c1nnc2nc3c(nn12)C(=O)c1ccccc1-3` [Example 1l/A, 1-lsopropyl-2,3,4,10,10a-pentaaza-cyclopenta[b]fluoren-9-one] displayed an IC50 at Uch-L3 of 800 nM. Take `CCc1nnc2nc3c(nn12)C(=O)c1cc(OC)c(OC)cc1-3` [Example 5b/A, 1-Ethyl-6,7-dimethoxy-2,3,4,10,10a-pentaaza-cyclopenta[b]fluoren-9-one]: the IC50 was 1800 nM on Uch-L3 and 35700 nM against SENP1. For `CCc1nnc2nc3c(nn12)-c1cc(OC)c(OC)cc1C3=O` [Example 5b/B, 3-Ethyl-6,7-dimethoxy-1,2,3a,4,10-pentaaza-cyclopenta[b]fluoren-9-one], in that order: 131 nM and 1280 nM.
